The supplement of paper PMC10307832

Legend:
Experiment in all cases: relative viability (nuclei count vs DMSO), 5 days (fraction); higher = more cells survive
Kobe2602 + Olaparib = compound: C1=CC(=CC=C1NC(=S)NNC2=C(C=C(C=C2[N+](=O)[O-])C(F)(F)F)[N+](=O)[O-])F [Kobe2602] + O=C(c1cc(Cc2n[nH]c(=O)c3ccccc23)ccc1F)N1CCN(C(=O)C2CC2)CC1 [Olaparib] (partner 8 µM)
Summary of the method: (§1)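 Relative viability divides the nuclei count in treated wells by that in vehicle wells. Lung cancer cell lines were seeded in 1536-well plates, dosed by pin tool the next day, and fixed and stained after 5 days in one step with final 0.05% Triton X-100, 1% formaldehyde and 1 ug/ml Hoechst. Dosing was a single drug or a fixed anchor-drug dose plus five library-drug doses (not always all listed) in √10 steps, and values are medians of duplicate plates imaged at 4×.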

[1] = compound: COc1cc2nccc(Oc3ccc(NC(=O)C4(C(=O)Nc5ccc(F)cc5)CC4)cc3)c2cc1OC [Cabozantinib] + N=C(N)NC(=N)NCCc1ccccc1 [Phenformin] (partner 250 µM)
Summary of the method: as §1

[2] = compound: COc1cc2nccc(Oc3ccc(NC(=O)C4(C(=O)Nc5ccc(F)cc5)CC4)cc3)c2cc1OC [Cabozantinib] + Nc1nc2[nH]cc(CCc3ccc(C(=O)N[C@@H](CCC(=O)O)C(=O)O)cc3)c2c(=O)[nH]1 [Pemetrexed] (partner 0.2 µM)
Summary of the method: as §1

Cabozantinib + Olaparib = compound: COc1cc2nccc(Oc3ccc(NC(=O)C4(C(=O)Nc5ccc(F)cc5)CC4)cc3)c2cc1OC [Cabozantinib] + O=C(c1cc(Cc2n[nH]c(=O)c3ccccc23)ccc1F)N1CCN(C(=O)C2CC2)CC1 [Olaparib] (partner 8 µM)
Summary of the method: as §1

Cell Line | relative viability (Kobe2602 + Olaparib; first compound 0.2 µM) | relative viability (Kobe2602 + Olaparib; first compound 0.6325 µM) | relative viability (Kobe2602 + Olaparib; first compound 2 µM) | relative viability (Kobe2602 + Olaparib; first compound 6.325 µM) | relative viability (Kobe2602 + Olaparib; first compound 20 µM) | relative viability ([1]; first compound 0.06325 µM) | relative viability ([1]; first compound 0.2 µM) | relative viability ([1]; first compound 0.6325 µM) | relative viability ([1]; first compound 2 µM) | relative viability ([2]; first compound 0.06325 µM) | relative viability ([2]; first compound 0.2 µM) | relative viability ([2]; first compound 0.6325 µM) | relative viability ([2]; first compound 2 µM) | relative viability (Cabozantinib + Olaparib; first compound 0.06325 µM) | relative viability (Cabozantinib + Olaparib; first compound 0.2 µM) | relative viability (Cabozantinib + Olaparib; first compound 0.6325 µM) | relative viability (Cabozantinib + Olaparib; first compound 2 µM) | relative viability ([1]; first compound 0.02 µM) | relative viability ([2]; first compound 0.02 µM) | relative viability (Cabozantinib + Olaparib; first compound 0.02 µM)
HCC-78 | 0.852 | 0.809 | 0.904 | 0.591 | 0.907 | 0.733 | 0.335 | 0.383 | 0.383 | 0.941 | 0.908 | 0.926 | 0.89 | 0.886 | 0.753 | 0.443 | 0.405 |  |  | 
NCI-H322M | 0.737 | 0.752 | 0.776 | 0.875 | 0.828 | 0.922 | 0.589 | 0.803 | 0.816 | 0.744 | 0.578 | 0.628 | 0.613 | 0.902 | 0.695 | 0.781 | 0.675 | 0.779 | 0.614 | 0.831
HOP-62 | 0.512 | 0.523 | 0.476 | 0.316 | 0.472 | 0.777 | 0.741 | 0.693 | 0.697 | 0.364 | 0.34 | 0.336 | 0.3 | 0.406 | 0.608 | 0.602 | 0.575 | 0.706 | 0.271 | 0.435
NCI-H838 | 0.733 | 0.779 | 0.759 | 0.725 | 0.764 | 0.592 | 0.542 | 0.563 | 0.41 | 0.263 | 0.234 | 0.288 | 0.244 | 0.836 | 0.774 | 0.699 | 0.662 | 0.551 | 0.276 | 0.847
LK-2 | 0.619 | 0.766 | 0.875 | 0.596 | 0.796 | 0.508 |  | 0.396 | 0.607 | 0.427 | 0.236 | 0.266 | 0.296 | 0.791 | 0.815 | 0.697 | 0.667 |  |  | 0.57
BEN | 1.08 | 1.02 | 1 | 1.07 | 0.973 | 0.259 | 0.284 | 0.268 | 0.274 | 0.914 | 0.781 | 0.851 | 0.698 | 1.18 | 1.23 | 1.01 | 0.764 | 0.251 | 0.65 | 1.16
NCI-H23 | 0.367 | 0.355 | 0.249 | 0.277 | 0.313 | 0.938 | 0.8 | 0.825 | 0.814 | 0.819 | 0.471 | 0.655 | 0.476 | 0.386 | 0.345 | 0.304 | 0.348 |  |  | 
ChaGo-K-1 | 0.362 | 0.406 | 0.4 | 0.355 | 0.332 | 0.519 | 0.469 | 0.513 | 0.501 | 0.261 | 0.255 | 0.26 | 0.263 | 0.458 | 0.454 | 0.411 | 0.442 | 0.424 | 0.261 | 0.446
NCI-H1944 | 0.475 | 0.385 | 0.403 | 0.432 | 0.403 | 0.213 | 0.193 | 0.208 | 0.204 | 0.645 | 0.631 | 0.637 | 0.696 | 0.413 | 0.404 | 0.401 | 0.52 | 0.17 | 0.601 | 0.426
